Patent publication US10322104B2, “Disulfur bridge linkers for conjugation of a cell-binding molecule” (Suzhou M-Conj Biotech Co., Ltd., priority 2015, dated 2019)

What was measured:
[1] = system: human gastric carcinoma N-87 cell line tumor xenograft; assay: Antitumor activity in vivo, N-87 tumor xenograft; set-up: species or system female BALB/c Nude mice; conditions: one injection
Protocol: Five-week-old female BALB/c Nude mice (30 animals) were inoculated subcutaneously in the area under the right shoulder with N-87 carcinoma cells (5×10^6 cells/mouse) in 0.1 mL of serum-free medium. The tumors were grown for 8 days to an average size of 136 mm^3. The animals were then randomly divided into 5 groups (6 animals per group). The first group of mice served as the control group and was treated with the phosphate-buffered saline vehicle. […] Three dimensions of the tumor were measured every 4 days and the tumor volumes were calculated using the formula tumor volume=½ (length×width×height). The weight of the animals was also measured at the same time. A mouse was sacrificed when any one of the following criteria was met: (1) loss of body weight of more than 20% from pretreatment weight, (2) tumor volume larger than 1500 mm^3, (3) too sick to reach food and water, or (4) skin necrosis. A mouse was considered to be tumor-free if no tumor was palpable.

[2] = system: HL-60, a human promyelocytic leukemia cell line (Ag−); assay: In vitro cytotoxicity (MTT), HL-60 cells; type: cell-based; conditions: 120 hours incubation, read-out: IC50 (nM) HL60 cell (Ag−)
Protocol: (§1) The cell lines used in the cytotoxicity assays were HL-60, a human promyelocytic leukemia cell line; NCI-N87, a human gastric carcinoma cell line; and SKOV3, a human ovarian carcinoma cell line. For HL-60, and NCI-N87, the cells were grown in RPMI-1640 with 10% FBS. For SKOV3 cells, the cells were grown in McCoy's 5A Medium with 10% FBS. To run the assay, the cells (180 μl, 6000 cells) were added to each well in a 96-well plate and incubated for 24 hours at 37° C. with 5% CO2. Next, the cells were treated with test compounds (20 μl) at various concentrations in appropriate cell culture medium (total volume, 0.2 mL). The control wells contain cells and the medium but lack the test compounds. The plates were incubated for 120 hours at 37° C. with 5% CO2. MTT (5 mg/ml) was then added to the wells (20 μl) and the plates were incubated for 1.5 hr at 37° C. The medium was carefully removed and DMSO (180 μl) was added afterward. After it was shaken for 15 min, the absorbance was measured at 490 nm and 570 nm with a reference filter of 620 nm. The inhibition % was calculated according to the following equation: inhibition %=[1−(assay-blank)/(control-blank)]×100.

[3] = system: SKOV3, a human ovarian carcinoma cell line (Ag+); assay: In vitro cytotoxicity (MTT), SK-OV-3 cells; type: cell-based
Protocol: as §1

[4] = system: NCI-N87, a human gastric carcinoma cell line (Ag+); assay: In vitro cytotoxicity (MTT), N87 cells; type: cell-based
Protocol: as §1

[5] = relative to HL60 cell (Ag−) IC50

Substance: T-DM1
- animals with no tumor measurable ([1]; 5 mg/Kg i.v., at days 13 and 21 until day 37 and 45, 6 animals per group): 2/6
- duration of tumor growth inhibition ([1]; 5 mg/kg, i.v.): about 44 days
- anti-tumor effect (FIG. 12) ([1]; 5 mg/kg, i.v., day 13˜21 till day 60 (the end of experiment)): did not completely eliminate the tumor
- IC50 [2]: > 15 nM
- IC50 ([3]; MTT, 120 hours incubation): 0.177 nM
- Specificity for SK-OV-3 cell [3, 5]: over 84
- IC50 ([4]; MTT, 120 hours incubation): 0.266 nM
- Specificity for N87 cell [4, 5]: over 56
